Measured values as given in paper PMC9248008, “Mechanistic Studies of a Skatole-Forming Glycyl Radical Enzyme Suggest Reaction Initiation via Hydrogen Atom Transfer” (Journal of the American Chemical Society, 2022).

Tests used:
[1] = target: T1, Ou IAD (indoleacetate decarboxylase from Olsenella uli) (Olsenella uli, UniProt E1QXZ2); assay: inhibition in assays with I3A; assay type: biochemical; settings: partial competitive inhibitor versus I3A, not consumed
T1 construct: gene Olsu_0124; purified; glycyl radical installed by Ou IAD-AE with SAM; catalytic Gly853 and Cys500; tags and host only in supplement

[2] = target: T2, Cs HPAD (hydroxyphenylacetate decarboxylase) (Clostridium scatologenes, UniProt Q38HX4); assay: p-cresol formation, deuterium incorporation in D2O; assay type: biochemical; settings: mere turnover
T2 construct: gene csdB; glycyl radical enzyme; residues Cys503, Glu505, Glu637; with 4-hydroxyphenylacetate decarboxylase small subunit
T2 sequence (Q38HX3 whole entry): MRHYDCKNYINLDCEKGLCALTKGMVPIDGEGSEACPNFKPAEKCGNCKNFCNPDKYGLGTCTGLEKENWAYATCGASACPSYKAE
T2 sequence (Q38HX4 whole entry): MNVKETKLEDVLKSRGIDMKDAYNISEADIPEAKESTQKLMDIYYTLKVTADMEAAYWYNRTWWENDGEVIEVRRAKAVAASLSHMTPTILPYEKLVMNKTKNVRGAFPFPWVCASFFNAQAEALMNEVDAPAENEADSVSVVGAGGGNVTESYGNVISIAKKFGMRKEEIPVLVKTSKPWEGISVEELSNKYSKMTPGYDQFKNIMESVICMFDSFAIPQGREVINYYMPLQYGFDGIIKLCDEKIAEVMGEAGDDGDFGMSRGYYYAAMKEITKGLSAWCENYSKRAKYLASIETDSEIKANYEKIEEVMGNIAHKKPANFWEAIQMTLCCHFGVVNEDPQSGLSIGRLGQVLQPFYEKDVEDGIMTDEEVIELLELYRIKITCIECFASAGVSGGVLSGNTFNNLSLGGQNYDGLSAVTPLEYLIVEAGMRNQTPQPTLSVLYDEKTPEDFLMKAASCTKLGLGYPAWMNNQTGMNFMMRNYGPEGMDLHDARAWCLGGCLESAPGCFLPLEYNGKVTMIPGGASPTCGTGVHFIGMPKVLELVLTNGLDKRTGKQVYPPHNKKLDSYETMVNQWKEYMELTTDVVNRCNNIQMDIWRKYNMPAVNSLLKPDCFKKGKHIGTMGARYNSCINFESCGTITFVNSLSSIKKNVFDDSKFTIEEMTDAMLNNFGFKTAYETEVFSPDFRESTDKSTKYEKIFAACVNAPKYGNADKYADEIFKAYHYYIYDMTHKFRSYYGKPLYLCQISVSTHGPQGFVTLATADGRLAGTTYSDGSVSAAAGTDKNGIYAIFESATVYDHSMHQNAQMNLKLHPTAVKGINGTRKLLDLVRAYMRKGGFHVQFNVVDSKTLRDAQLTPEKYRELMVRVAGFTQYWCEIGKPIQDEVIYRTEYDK

T1 sequence (E1QXZ2 entry or part of it): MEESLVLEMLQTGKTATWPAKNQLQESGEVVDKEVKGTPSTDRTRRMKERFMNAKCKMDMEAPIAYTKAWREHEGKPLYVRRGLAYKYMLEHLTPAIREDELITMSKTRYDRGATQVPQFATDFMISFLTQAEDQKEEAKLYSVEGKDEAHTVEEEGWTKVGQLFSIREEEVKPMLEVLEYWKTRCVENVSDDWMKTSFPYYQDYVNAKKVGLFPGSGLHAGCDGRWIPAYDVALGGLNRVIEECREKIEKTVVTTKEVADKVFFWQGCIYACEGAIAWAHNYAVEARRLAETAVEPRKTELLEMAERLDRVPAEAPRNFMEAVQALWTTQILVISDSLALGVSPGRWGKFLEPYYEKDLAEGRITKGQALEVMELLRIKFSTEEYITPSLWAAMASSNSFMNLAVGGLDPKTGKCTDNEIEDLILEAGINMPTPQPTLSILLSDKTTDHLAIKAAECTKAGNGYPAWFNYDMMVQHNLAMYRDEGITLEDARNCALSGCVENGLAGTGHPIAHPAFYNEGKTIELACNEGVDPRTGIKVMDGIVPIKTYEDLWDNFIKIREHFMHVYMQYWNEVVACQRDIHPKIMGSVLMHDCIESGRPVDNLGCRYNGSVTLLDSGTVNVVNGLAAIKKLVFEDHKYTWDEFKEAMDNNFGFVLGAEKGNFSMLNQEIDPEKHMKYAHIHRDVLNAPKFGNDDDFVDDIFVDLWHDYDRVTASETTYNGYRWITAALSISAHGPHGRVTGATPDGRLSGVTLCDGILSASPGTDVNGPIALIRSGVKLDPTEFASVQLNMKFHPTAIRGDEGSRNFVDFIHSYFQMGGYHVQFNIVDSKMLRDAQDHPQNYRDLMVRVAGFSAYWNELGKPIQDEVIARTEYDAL

SMILES: CC(C(=O)O)c1c[nH]c2ccccc12 (racemic) [α-Me-I3A]
- inhibition in assays with I3A ([1]; racemic): Both compounds are partial competitive inhibitors in assays with I3A

SMILES: O=C(O)Cc1ccc(O)cc1 [HPA, p-hydroxyphenylacetate]
- p-cresol formation, deuterium incorporation in D2O [2]: When HPA and Cs HPAD were incubated with D2O, only the expected D1-p-cresol

SMILES: CC(C)(C(=O)O)c1c[nH]c2ccccc12 [α,α-Me2-I3A]
- inhibition in assays with I3A [1]: Both compounds are partial competitive inhibitors in assays with I3A
